Drawing on PubChem BioAssay (NCI), this text covers TGI and GI50 for seven compounds.

Several values for one entry are separate records, joined by “and”; a condition that tells them apart may be missing. Equal values may be shown once.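 In this assay, cells in 96-well plates receive the compound at five concentrations for 48 hours. Endpoints are linearly interpolated between the surrounding concentrations. GI50 is the concentration that inhibits growth by half. The concentration for full growth arrest is given as TGI.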 A value given as a limit tells only on which side of the number the result lay.

What all share (assay): growth of human tumour cells (NCI), 48 h
For experiment [1], the system named is NCI-H522 lung.
Experiment [2] has as its system MDA-MB-435.
Experiment [3] deals with NCI/ADR-RES ovarian.
In experiment [4] the test system is 786-0 renal.
In experiment [5] the test system is SNB-75 CNS.
Experiment [6] relates to SF-268 CNS.
Experiment [7] deals with SNB-19 CNS.
Experiment [8] deals with HOP-62 NSCLC.
In experiment [9] the test system is COLO 205 colon.
Experiment [10] has as its system TK-10 renal.

Consider `COc1ccc2c3c1OC1C(OC)(OC)C=C[C@@]4(Br)[C@@H](C2)N(CC2CC2)CC[C@]314` (stereo partly specified), for which the TGI in experiment [1] was 47.8 µM; in experiment [2], more than 100 µM; in experiment [3], more than 100 µM; in experiment [4] it was more than 100 µM; in experiment [5], more than 100 µM; in experiment [6], more than 100 µM. Also, the TGI in experiment [7] is more than 100 µM; in experiment [8] it was more than 100 µM; in [9] it was 94.1 µM; in experiment [10], more than 100 µM.
For the compound `COc1cc([N+](=O)[O-])c(OC)cc1-c1nc2sc(C)cn2c1/C(N)=N/C(=N)N`, the GI50 in experiment [1] is 26.5 µM; in experiment [2], 16.1 µM; in [3] it was more than 100 µM; in [4], more than 100000 nM; in experiment [5], more than 100 µM; in experiment [6] it was 22 µM. Moreover, the GI50 in experiment [7] is 39.4 µM; in experiment [8] it was 71.3 µM; in experiment [9], more than 100000 nM; in experiment [10], 20.3 µM. The TGI in experiment [1], in experiment [2], in experiment [3], in experiment [4], in experiment [5] and in experiment [6] was more than 100 µM each time. For the same compound, the TGI in [7] is more than 100 µM; in experiment [8], more than 100 µM; in [9], more than 100 µM; in experiment [10], 50.4 µM.
Regarding `Cc1cnc2oc3ccc(O)cc3c2c1-c1ccccc1`, the GI50 in experiment [1] is 44.9 µM; in experiment [2], more than 100 µM; in experiment [3] it was 28.4 µM; in experiment [4], 36300 nM; in experiment [5], 21.2 µM; in experiment [6] it was 16.1 µM. For the same compound, the GI50 was 34.3 µM in experiment [7], 27.3 µM in [8], more than 100000 nM in [9] and 20.3 µM in experiment [10]. Moreover, the TGI in experiment [1] is more than 100 µM; in experiment [2] it was more than 100 µM; in [3], more than 100 µM; in experiment [4] it was more than 100 µM; in experiment [5] it was more than 100 µM; in [6] it was 58.8 µM. In addition, the TGI in experiment [7] is more than 100 µM; in [8], 83.4 µM; in experiment [9], more than 100 µM; in experiment [10] it was more than 100 µM.
As to `CCc1cnn2c(NCc3ccc[n+]([O-])c3)cc(N3CCCC[C@H]3CCO)nc12`, the GI50 was < 0.01 µM and 0.00219 µM in experiment [1]; < 0.01 µM and 0.00331 µM in [2]; 0.162 µM and 0.146 µM in experiment [3]; 10.1 nM and 4.94 nM in experiment [4]; < 0.01 µM and 0.00174 µM in experiment [5]; < 0.01 µM and 0.00348 µM in experiment [6]. The GI50 was < 0.0107 µM and 0.00366 µM in experiment [7]; < 0.01 µM and 0.00415 µM in [8]; < 10 nM and 2.35 nM in experiment [9]; < 0.0156 µM and 0.00916 µM in experiment [10]. Besides, the TGI in experiment [1] was < 0.01 µM and 0.00549 µM; in experiment [3], 2.53 µM and > 6.61 µM; in experiment [4], more than 100 µM; in experiment [5], < 0.0145 µM and 0.00437 µM; in [6], 0.0576 µM and 0.373 µM; in experiment [7], more than 100 µM. The TGI in experiment [8] was 0.0351 µM; in experiment [9], < 0.01 µM and 0.00586 µM; in [10], 1.95 µM and > 2.07 µM.
For `COC(=O)c1ccc(/C=C(\c2ccc([N+](=O)[O-])o2)S(=O)(=O)c2ccc(NC(C)=O)cc2)o1`, the TGI in experiment [1] is 5.02 µM; in experiment [2], 12.8 µM; in experiment [3] it was 30.5 µM; in experiment [4], 14.9 µM; in experiment [5], 36.2 µM; in experiment [6], 30.9 µM. The TGI worked out at 32.2 µM in experiment [7], 33.4 µM in [8], 7.56 µM in [9] and 16.2 µM in [10].
Consider `Cn1cc(C2=C(c3cn(-c4ccccc4)c4ccccc34)C(=O)NC2=O)c2ccccc21`, for which the GI50 in experiment [1] is 6.61 µM; in experiment [2], 6.01 µM; in experiment [3], 11.2 µM; in experiment [4] it was more than 25000 nM; in [5] it was 5.76 µM; in experiment [6] it was 20.4 µM. The GI50 is more than 25 µM in experiment [7], more than 25 µM in experiment [8], 11600 nM in experiment [9] and more than 25 µM in experiment [10]. Moreover, the TGI in [1] was more than 25 µM; in experiment [2] it was more than 20.5 µM; in [3], more than 25 µM; in experiment [4], more than 25 µM; in experiment [5] it was more than 25 µM; in experiment [6] it was more than 25 µM. Besides, the TGI in experiment [7], in experiment [8], in experiment [9] and in experiment [10] was more than 25 µM in each case.
As to `COCCOC1=CC(=O)c2c(O)ccc(O)c2C1=O`, the GI50 is 1.69 µM in experiment [1]; 1840 nM in experiment [4]; 1.69 µM in [5]; 3.29 µM in experiment [6]; 1.9 µM in experiment [8]; 320 nM in [9]. In addition, the GI50 in experiment [10] was 2.9 µM. The TGI in [1] was 4.44 µM and 3.37 µM; in [2] it was 0.324 µM and 0.323 µM; in experiment [3], 7.41 µM and 5.63 µM; in experiment [4] it was 3.06 µM and 3.61 µM; in [5], 3.43 µM and 3.09 µM; in [6] it was 3.54 µM and 10.9 µM. The TGI in experiment [7] is 3.82 µM; in experiment [8] it was 1.8 µM and 3.31 µM; in [9], 0.661 µM and 1.2 µM; in experiment [10], 3.57 µM and 5.78 µM.
